# Data taken from patent publication US20100119599A1 (ARCHER PHARMACEUTICALS, INC., priority 2006, published 2010).
# Counter-ions that a name gives are not always drawn. Like-named read-outs stand apart in the source and are kept apart here.
# What was measured:
# [1] = test system: Aβ1-40; assay: Measurement of Aβ1-40 in culture medium of 7W WT APP751 CHO cells by ELISA; format: cell-based, Chinese hamster; settings: for activity at 5 µM: Cricetulus griseus, 5 μM test compound, CHO cells stably transfected with human APP751, culture medium, ELISA, control DMSO; for Aβ1-40 (% of control): CHO cells that overexpress APP751, zero = below the detection limit of the assay;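 as to all read-outs here: 5 µM test compound but RI-coded compounds at 10 µM for 24 hours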
# Experimental: (§1) Chinese hamster ovary (CHO) cells, stably transfected with human APP751 (7W WT APP751 CHO cells) were used. See, e.g., Koo and Squazzo, J. Biol. Chem., 269(26): 17386-17389, 1994. The cells were maintained in DMEM medium supplemented with 10% fetal bovine serum and 1× mixture of penicillin/streptomycin/fungizone/glutamine mixture (Cambrex, Md.) geneticin as selecting agent in 75 cm^2 cell culture flasks. The 7W WT APP751 CHO cells were plated in 96-well cell culture plates in quadruplicate, containing 200 microliters of culture medium, for 18 hours at 37° C. and 5% CO2. All test compounds were placed in dimethyl sulfoxide (DMSO) before being added to the cultured confluent 7W WT APP751 CHO cells to a concentration of the test compound of 5 μM. The culture medium was collected and diluted before being assayed by ELISAs for Aβ1-40 at 10-fold dilution and Aβ1-42 at 2-fold dilution, respectively. Concentrations of Aβ1-40 and Aβ1-42, expressed in pg/ml, were determined using commercially available ELISAs (Biosource, Calif.) in a colorimetric assay using labeled antibodies detected spectrophotometrically. For compounds with an identification beginning “RI”, the compounds were tested at a concentration of 10 μM for 24 hours. Control cells were treated with DMSO containing no compound. The percentage reduction in levels of Aβ1-40 and Aβ1-42 as compared to control cells not exposed to the test compounds are reported for the compounds in Tables 1, 2, and 3, supra. An entry of “0” indicates no detectable amount of Aβ1-40 or Aβ1-42 according to the assay conditions. The data in Tables 1, 2, and 3 may be rounded to the nearest 0.1%.
# [2] = test system: Aβ1-42; assay: Measurement of Aβ1-42 in culture medium of 7W WT APP751 CHO cells by ELISA; format: cell-based, Chinese hamster; settings: for activity at 5 µM: Cricetulus griseus, 5 μM test compound, CHO cells stably transfected with human APP751, culture medium, ELISA, control DMSO; for Aβ1-42 (% of control): CHO cells that overexpress APP751, zero = below the detection limit of the assay;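 as to Aβ1-42 (% of control): 5 µM test compound but RI-coded compounds at 10 µM for 24 hours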
# Experimental: as §1
# [3] = Table 1, 0 = no detectable amount
# [4] = Table 1, 0 = no detectable amount, read-out: Aβ1-42 (% of control)
structure (smiles),measurement,setting,value
"COc1ccc(COC(=O)C2=C(C)NC3=C(C(=O)CCC3)C2c2ccc(Br)cc2)cc1 (centres unmarked) [ST018645, (4-methoxyphenyl)methyl 4-(4-bromophenyl)-2-methyl-5-oxo-1,4,6,7,8-pentahydroquinoline-3-carboxylate]",activity at 5 µM,[1]; [3],7.03%
same,activity at 5 µM,[2]; [4],18%
"CCOC(=O)C1=C(N)n2c(s/c(=C/c3ccco3)c2=O)=C(C(=O)OCC)C1c1ccco1 (centres unmarked) [ST011765, ethyl 5-amino-6-(ethoxycarbonyl)-7-(2-furyl)-2-(2-furylmethylene)-3-oxo-4,7-dihydro-1,3-thiazolidino[3,2-a]pyridine-8-carboxylate]",Aβ1-40 (% of control),[1],42.57 % of control
same,Aβ1-42 (% of control),[2],29.42 % of control
"CCOC(=O)C1=C(C)NC2=C(C(=O)CCC2)C1c1cc2c(cc1[N+](=O)[O-])OCO2 (centres unmarked) [ST212479, ethyl 2-methyl-4-(6-nitro(2H-benzo[d]1,3-dioxolan-5-yl))-5-oxo-1,4,6,7,8-pentahydroquinoline-3-carboxylate]",activity at 5 µM,[1]; [3],60.2%
same,activity at 5 µM,[2]; [4],29.3%
"CCCCCOC(=O)C1=C(C)NC2=C(C(=O)CCC2)C1c1ccc(OC)c(OC)c1OC (centres unmarked) [ST013346, pentyl 2-methyl-5-oxo-4-(2,3,4-trimethoxyphenyl)-1,4,6,7,8-pentahydroquinoline-3-carboxylate]",activity at 5 µM,[1]; [3],16.3%
same,activity at 5 µM,[2]; [4],77.7%
"COc1ccc(C2C(C#N)=C(N)N(c3ccccc3Cl)C3=C2C(=O)CCC3)cc1O (centres unmarked) [ST051958, 2-amino-1-(2-chlorophenyl)-4-(3-hydroxy-4-methoxyphenyl)-5-oxo-1,4,6,7,8-pentahydroquinoline-3-carbonitrile]",activity at 5 µM,[1]; [3],56.6%
same,activity at 5 µM,[2]; [4],80.2%
CCc1ccc(NC(=O)CSC2=C(C#N)C(c3ccsc3)C(C(=O)Nc3ccccc3)=C(C)N2)cc1 (centres unmarked) [RI_62],Aβ1-40 (% of control),[1],91.6 % of control
same,Aβ1-42 (% of control),[2],62.4 % of control
"CC1=C(C(=O)OCC(C)C)C(c2ccc(F)c(F)c2)C2=C(CCCC2=O)N1 (centres unmarked) [ST052345, 2-methylpropyl 4-(3,4-difluorophenyl)-2-methyl-5-oxo-1,4,6,7,8-pentanydroquinoline-3-carboxylate]",activity at 5 µM,[1]; [3],43.6%
same,activity at 5 µM,[2]; [4],7.81%
N#CC1=C(N)n2c(s/c(=C\c3ccccc3)c2=O)=C(C#N)C1c1ccccc1 (centres unmarked) [RI_95],Aβ1-40 (% of control),[1],67.9 % of control
same,Aβ1-42 (% of control),[2],69.9 % of control
"CC1=C(C(=O)OC2CCCCC2)C(c2cccc(Cl)c2)C2=C(CCCC2=O)N1 (centres unmarked) [ST015159, cyclohexyl 4-(3-chlorophenyl)-2-methyl-5-oxo-1,4,6,7,8-pentahydroquinoline-3-carboxylate]",activity at 5 µM,[1]; [3],2.98%
same,activity at 5 µM,[2]; [4],0%
"CCOc1cc(C2C(C(=O)OCCSCC)=C(C)NC3=C2C(=O)CC(c2ccc(Cl)cc2)C3)ccc1O (centres unmarked) [ST017243, 2-ethylthioethyl 7-(4-chlorophenyl)-4-(3-ethoxy-4-hydroxyphenyl)-2-methyl-5-ox o-1,4,6,7,8-pentahydroquinoline-3-carboxylate]",activity at 5 µM,[1]; [3],69.6%
same,activity at 5 µM,[2]; [4],15.6%
CC1=C(C(=O)Nc2ccccc2)C(c2ccsc2)C(C#N)=C(S)N1 (centres unmarked) [RI_29],Aβ1-40 (% of control),[1],79.7 % of control
same,Aβ1-42 (% of control),[2],100 % of control
"COc1ccc(COC(=O)C2=C(C)NC3=C(C(=O)CC(C)(C)C3)C2c2ccc(Cl)c([N+](=O)[O-])c2)cc1 (centres unmarked) [ST052357, (4-methoxyphenyl)methyl 4-(4-chloro-3-nitrophenyl)-2,7,7-trimethyl-5-oxo-1,4,6,7,8-pentahydroquinoline-3-carboxylate]",activity at 5 µM,[1]; [3],13.3%
same,activity at 5 µM,[2]; [4],23.4%
"CCOc1ccc(/C=c2\sc3n(c2=O)C(N)=C(C#N)C(c2ccc(OCC)c(OC)c2)C=3C#N)cc1OC (centres unmarked) [ST025022, 5-amino-7-(4-ethoxy-3-methoxyphenyl)-2-[(4-ethoxy-3-methoxyphenyl)methylene]-3-oxo-4,7-dihydro-1,3-thiazolidino[3,2-a]pyridine-6,8-dicarbonitrile]",Aβ1-40 (% of control),[1],61.31 % of control
same,Aβ1-42 (% of control),[2],76.11 % of control
"CC1=C(C(=O)OC2CCCC2)C(c2ccc(C)o2)C2=C(CC(c3cccs3)CC2=O)N1 (centres unmarked) [ST051567, cyclopentyl 2-methyl-4-(5-methyl(2-furyl))-5-oxo-7-(2-thienyl)-1,4,6,7,8-pentahydroquinoline-3-carboxylate]",activity at 5 µM,[1]; [3],60.4%
same,activity at 5 µM,[2]; [4],85%
"COc1ccc(C2C(C(=O)OC3CCCC3)=C(C)NC3=C2C(=O)CC(C)(C)C3)c(OC)c1 (centres unmarked) [ST013086, cyclopentyl 4-(2,4-dimethoxyphenyl)-2,7,7-trimethyl-5-oxo-1,4,6,7,8-pentahydroquinoline-3-carboxylate]",activity at 5 µM,[1]; [3],0%
same,activity at 5 µM,[2]; [4],73.7%
"CCOc1ccc(NC(=O)CSC2=C(C#N)C(c3cccs3)C(C(=O)Nc3ccccc3C)=C(C)N2)cc1 (centres unmarked) [ST050838, 2-{3-cyano-6-methyl-5-[N-(2-methylphenyl)carbamoyl]-4-(2-thienyl)(2-1,4-dihydropyridylthio)}-N-(4-ethoxyphenyl)acetamide]",Aβ1-40 (% of control),[1],70.76 % of control
same,Aβ1-42 (% of control),[2],56.66 % of control
"CCC(C)OC(=O)C1=C(C)NC2=C(C(=O)CC(c3ccc(Cl)cc3)C2)C1c1cc(OC)c(OC)c(OC)c1 (centres unmarked) [ST017091, methylpropyl 7-(4-chlorophenyl)-2-methyl-5-oxo-4-(3,4,5-trimethoxyphenyl)-1,4,6,7,8-pentahydroquinoline-3-carboxylate]",activity at 5 µM,[1]; [3],65.7%
same,activity at 5 µM,[2]; [4],91%
"CCc1ccc(C2C(C(=O)OC)=CNC=C2C(=O)OC)cc1 [ST052274, methyl 4-(4-ethylphenyl)-5-(methoxycarbonyl)-1,4-dihydropyridine-3-carboxylate]",Aβ1-40 (% of control),[1],4.952 % of control
same,Aβ1-42 (% of control),[2],0 % of control
COc1cc(CNC(=O)CSC2=C(C#N)C(c3cccs3)C(C(=O)Nc3ccccc3)=C(C)N2)cc(OC)c1OC (centres unmarked) [RI_18],Aβ1-40 (% of control),[1],49.2 % of control
same,Aβ1-42 (% of control),[2],44.1 % of control
"CCc1ccc(C2C(C(=O)OCC(C)C)=C(C)NC3=C2C(=O)CC(c2ccccc2)C3)cc1 (centres unmarked) [ST016970, 2-methylpropyl 4-(4-ethylphenyl)-2-methyl-5-oxo-7-phenyl-1,4,6,7,8-pentahydroquinoline-3-carboxylate]",activity at 5 µM,[1]; [3],27.7%
same,activity at 5 µM,[2]; [4],27.8%
CC1=C(C(=O)Nc2ccc(Cl)cc2)C(c2ccccc2C)C(C#N)=C(SCC(=O)Nc2cccc(C)c2)N1 (centres unmarked) [RI_31],Aβ1-40 (% of control),[1],53.9 % of control
same,Aβ1-42 (% of control),[2],73.3 % of control
CCc1cccc(NC(=O)CSC2=C(C#N)C(c3sccc3Br)C(C(=O)Nc3ccccc3)=C(C)N2)c1 (centres unmarked) [RI_82],Aβ1-40 (% of control),[1],67.5 % of control
same,Aβ1-42 (% of control),[2],67.9 % of control
CCCCc1ccc(NC(=O)CSC2=C(C#N)C(c3ccsc3)C(C(=O)Nc3ccccc3)=C(C)N2)cc1 (centres unmarked) [RI_65],Aβ1-40 (% of control),[1],51.7 % of control
same,Aβ1-42 (% of control),[2],38.1 % of control
"CC1=C(C(=O)OC2CCCCC2)C(c2cccc3ccccc23)C2=C(CCCC2=O)N1 (centres unmarked) [ST013258, cyclohexyl 2-methyl-4-naphthyl-5-oxo-1,4,6,7,8-pentahydroquinoline-3-carboxylate]",activity at 5 µM,[1]; [3],0%
same,activity at 5 µM,[2]; [4],47%
"CC1=C(C(=O)OC2CCCC2)C(c2ccccc2Br)C2=C(CC(C)(C)CC2=O)N1 (centres unmarked) [ST013103, cyclopentyl 4-(2-bromophenyl)-2,7,7-trimethyl-5-oxo-1,4,6,7,8-pentahydroquinoline-3-carboxylate]",activity at 5 µM,[1]; [3],0%
same,activity at 5 µM,[2]; [4],68.2%
"CCn1c2ccccc2c2cc(C3C(C(=O)OC4CCCC4)=C(C)NC4=C3C(=O)CC(C)(C)C4)ccc21 (centres unmarked) [ST052173, cyclopentyl 4-(9-ethylcarbazol-3-yl)-2,7,7-trimethyl-5-oxo-1,4,6,7,8-pentahydroquinoline-3-carboxylate]",activity at 5 µM,[1]; [3],64.7%
same,activity at 5 µM,[2]; [4],32.5%
"N#Cc1c(S)[nH]c(C(F)(F)F)cc1=O [ST014350, 4-oxo-2-sulfanyl-6-(trifluoromethyl)hydropyridine-3-carbonitrile, 4-methylmorpholine salt]",activity at 5 µM,[1]; Table 3,81.8%
same,activity at 5 µM,"[2]; Table 3, read-out: Aβ-42 (% of control)",46.1%
"COC(=O)C1=C(C)NC2=C(C(=O)CC(C)(C)C2)C1c1cccc(Br)c1 (centres unmarked) [ST013145, methyl 4-(3-bromophenyl)-2,7,7-trimethyl-5-oxo-1,4,6,7,8-pentahydroquinoline-3-carboxylate]",activity at 5 µM,[1]; [3],13.9%
same,activity at 5 µM,[2]; [4],43.3%
